The text below walks through data of US7666868B2, “N-sulphonylpyrroles and their use as histone deacetylase inhibitors” (4SC AG, priority 2005, dated 2010).

This experiment has as its system histone H3 acetylation (lysine 9+14) in HeLa cervical carcinoma cells. As to the kind of experiment: Cellular histone H3 acetylation assay. The conditions noted are these: Homo sapiens, 24 h incubation with compound, read-out: EC50 (histone H3 acetylating cellular potency). The class given is cell-based. The text has this: To assess the cellular efficacy of an histone deactylase inhibitor in vitro, an assay is set up in black clear-bottom 96-well plates and optimized for use on the Cellomics “ArrayScan II” platform for a quantitative calculation of histone acetylation. The protocol uses a polyclonal rabbit antibody, specifically binding to acetylated lysine 9+14 of human histone H3 on fixed cells with an Alexa Fluor 488 labeled goat ant rabbit-IgG used for counterstaining (modified from Braunger et al. MCR annual conference 2003, Abstract 4556).
5×10^3 HeLa cervical carcinoma cells/well (ATCC CCL-2) in 200 μl Dulbecco's modified Eagle's medium (DMEM) containing 10% fetal calf serum are seeded at day 1 in Packard view plates and incubated for 24 h under standard cell culture conditions. On day 2, 2 μl test compound (100× final concentration) is added and incubation continued for further 24 h. On day 3, the culture medium is discarded and attached cells fixed for 15 min at room temperature by addition of 100 μl fixation buffer (3.7% v:v formaldehyde in phosphate buffered saline/PBS). After discarding the fixation buffer and one wash with PBS, cells are permeabilized at room temperature by addition of 100 μl/well permeabilization buffer (30.8 mM NaCl, 0.54 mM Na2HPO4, 0.31 mM KH2PO4, 5% v:v Triton X-100) for 15 min at room temperature. After discarding the permeabilization buffer and washing twice with 100 μl/well blocking solution (PBS with 0.05% v:v Tween 20 and 5% w:v milk powder) at room temperature, the 1st antibody (anti-K9+14 histone H3 antibody, Calbiochem No. 382158) in blocking solution (50 μl/well) is added. After incubation for 1 h at 37° C., the wells are washed twice at room temperature with 100 μl/well blocking solution before addition of the 2nd antibody (goat-anti-rabbit Alexa Fluor 488; MoBiTec No. A-11008) in blocking solution (50 μl/well). After further incubation for 1 h at 37° C., wells are washed twice with 100 μl/well blocking solution room temperature. Finally, 100 d/well PBS are added and image analysis performed on the Cellomics “ArrayScan II” platform. For calculation of EC50 values, the nuclear fluorescence in cells treated with and without a reference HDAC inhibitor (eg NVP-LBH-589) are taken as a positive and negative control. For EC50 determination, the percentage of positive cells is determined and EC50 calculation done from concentration-effect curves by means of non-linear regression.

For the molecule `O=C(/C=C/c1ccn(S(=O)(=O)c2ccc(-c3ccc(CCN4CCOCC4)cc3)cc2)c1)NO` [Compound 8, (E)-N-Hydroxy-3-{1-[4′-(2-morpholin-4-yl-ethyl)-biphenyl-4-sulfonyl]-1H-pyrrol-3-yl}-acrylamide], the 50% effective concentration (EC50) lay in the range of 0.027 to 4.4 µM.

Regarding `O=C(/C=C/c1ccn(S(=O)(=O)c2ccc(-c3cccc(CCN4CCOCC4)c3)cc2)c1)NO` [Compound 9, (E)-N-Hydroxy-3-{1-[3′-(2-morpholin-4-yl-ethyl)-biphenyl-4-sulfonyl]-1H-pyrrol-3-yl}-acrylamide], the EC50 was in the range of 0.027 to 4.4 µM.

Turning to `Nc1ccc(-c2cccc(S(=O)(=O)n3ccc(/C=C/C(=O)NO)c3)c2)cn1` [Compound 10, (E)-3-{1-[3-(6-Amino-pyridin-3-yl)-benzenesulfonyl]-1H-pyrrol-3-yl}-N-hydroxy-acrylamide], the EC50 is 0.027 to 4.4 µM.

As to `Cn1cc(-c2cccc(S(=O)(=O)n3ccc(/C=C/C(=O)NO)c3)c2)cn1` [Compound 12, (E)-N-Hydroxy-3-(1-[3-(1-methyl-1H-pyrazol-4-yl)-benzenesulfonyl]-1H-pyrrol-3-yl)-acrylamide], the half-maximal effective concentration (EC50) was 0.027 to 4.4 µM.

Take `O=C(/C=C/c1ccn(S(=O)(=O)c2cc(-c3ccccc3)ccc2CCN2CCOCC2)c1)NO` [Compound 16, (E)-N-Hydroxy-3-{1-[4-(2-morpholin-4-yl-ethyl)-biphenyl-3-sulfonyl]-1H-pyrrol-3-yl}-acrylamide]: the EC50 was in the range of 0.027 to 4.4 µM.

For the molecule `Nc1ccc(-c2cccc(S(=O)(=O)n3ccc(/C=C/C(=O)Nc4ccccc4N)c3)c2)cn1` [Compound 17, (E)-N-(2-Amino-phenyl)-3-{1-[3-(6-amino-pyridin-3-yl)-benzenesulfonyl]-1H-pyrrol-3-yl}-acrylamide], the concentration for a half-maximal effect (EC50) is 0.027 to 4.4 µM.

In the case of `Nc1ccccc1NC(=O)/C=C/c1ccn(S(=O)(=O)c2cccc(-c3cccc(CCN4CCOCC4)c3)c2)c1` [Compound 18, (E)-N-(2-Amino-phenyl)-3-{1-[3′-(2-morpholin-4-yl-ethyl)-biphenyl-3-sulfonyl]-1H-pyrrol-3-yl}-acrylamide], the EC50 lay in the range of 0.027 to 4.4 µM.

On to `O=C(/C=C/c1ccn(S(=O)(=O)c2cccc(-c3cccc(CCN4CCOCC4)c3)c2)c1)NO` [Compound 20, (E)-N-Hydroxy-3-{1-[3′-(2-morpholin-4-yl-ethyl)-biphenyl-3-sulfonyl]-1H-pyrrol-3-yl}-acrylamide], for which the half-maximal effective concentration (EC50) lay in the range of 0.027 to 4.4 µM.

With `CS(=O)(=O)Nc1ccccc1-c1ccc(S(=O)(=O)n2ccc(/C=C/C(=O)NO)c2)cc1` [Compound 21, (E)-N-Hydroxy-3-[1-(2′-methanesulfonylamino-biphenyl-4-sulfonyl)-1H-pyrrol-3-yl]-acrylamide], the half-maximal effective concentration (EC50) lay within 0.027 to 4.4 µM.

Regarding `CS(=O)(=O)Nc1cccc(-c2ccc(S(=O)(=O)n3ccc(/C=C/C(=O)NO)c3)cc2)c1` [Compound 22, (E)-N-hydroxy-3-[1-(3′-methanesulfonylamino-biphenyl-4-sulfonyl)-1H-pyrrol-3-yl]-acrylamide], the EC50 fell in the range of 0.027 to 4.4 µM.

Take `CS(=O)(=O)Nc1ccc(-c2ccc(S(=O)(=O)n3ccc(/C=C/C(=O)NO)c3)cc2)cc1` [Compound 23, (E)-N-Hydroxy-3-[1-(4′-methanesulfonylamino-biphenyl-4-sulfonyl)-1H-pyrrol-3-yl]-acrylamide]: the half-maximal effective concentration (EC50) lay in the range of 0.027 to 4.4 µM.

For `CN(C)CCNC(=O)c1ccc(-c2ccc(S(=O)(=O)n3ccc(C=CC(=O)NO)c3)cc2)cc1` [Compound 24, 4′-[3-(E)-2-Hydroxycarbamoyl-vinyl)-pyrrole-1-sulfonyl]-biphenyl-4-carboxylic acid (2-dimethylamino-othyl)-amide], the EC50 fell in the range of 0.027 to 4.4 µM.

For `CN(C)CCNC(=O)c1cccc(-c2ccc(S(=O)(=O)n3ccc(C=CC(=O)NO)c3)cc2)c1` [Compound 25, 4′-[3-(E)-2-Hydroxycarbamoyl-vinyl)-pyrrole-1-sulfonyl]-biphenyl-3-carboxylic acid (2-dimethylamino-ethyl)-amide], the EC50 is 0.027 to 4.4 µM.

Take `CN(C)Cc1ccc(-c2ccc(S(=O)(=O)n3ccc(/C=C/C(=O)NO)c3)cc2)cc1` [Compound 26, (E)-3-[1-(4′-Dimethylaminomethyl-biphenyl-4-sulfonyl)-1H-pyrrol-3-yl]-N-hydroxy-acrylamide]: the half-maximal effective concentration (EC50) was in the range of 0.027 to 4.4 µM.

On to `CN(C)Cc1ccccc1-c1ccc(S(=O)(=O)n2ccc(/C=C/C(=O)NO)c2)cc1` [Compound 27, (E)-3-[1-(2′-Dimethylaminomethyl-biphenyl-4-sulfonyl)-1H-pyrrol-3-yl]-N-hydroxy-acrylamide], for which the EC50 fell in the range of 0.027 to 4.4 µM.

In the case of `CN1CCN(c2cc(-c3ccc(S(=O)(=O)n4ccc(/C=C/C(=O)NO)c4)cc3)ccn2)CC1` [Compound 28, (E)-N-Hydroxy-3-(1-{4-[2-(4-methyl-piperazin-1-yl)-pyridin-4-yl]-benzenesulfonyl}-1H-pyrrol-3-yl)-acrylamide], the EC50 was 0.027 to 4.4 µM.

Consider `CN(C)CCNC(=O)c1ccc(-c2cccc(S(=O)(=O)n3ccc(C=CC(=O)NO)c3)c2)cc1` [Compound 30, 3′-3-((E)-2-Hydroxycarbamoyl-vinyl)-pyrrole-1 sulfonyl]-biphenyl-4-carboxylic acid (2-dimethylamino-ethyl)-amide], for which the EC50 was 0.027 to 4.4 µM.

As to `O=C(/C=C/c1ccn(S(=O)(=O)c2cccc(-c3cccc(CN4CCOCC4)c3)c2)c1)NO` [Compound 31, (E)-N-Hydroxy-3-[1-(3′-morpholin-4-ylmethyl-biphenyl-3-sulfonyl)-1H-pyrrol-3-yl]-acrylamide], the EC50 lay within 0.027 to 4.4 µM.

As for `CN1CCN(c2cc(-c3cccc(S(=O)(=O)n4ccc(/C=C/C(=O)NO)c4)c3)ccn2)CC1` [Compound 33, (E)-N-Hydroxy-3-(1-{3-[2-(4-methyl-piperazin-1-yl)-pyridin-4-yl]-benzenesulfonyl}-1H-pyrrol-3-yl)-acrylamide], the EC50 was in the range of 0.027 to 4.4 µM.

For `O=C(/C=C/c1ccn(S(=O)(=O)c2cccc(-c3ccc(OCCN4CCOCC4)cc3)c2)c1)NO` [Compound 34, (E)-N-Hydroxy-3-{1-[4′-(2-morpholin-4-yl-ethoxy)-biphenyl-3-sulfonyl]-1H-pyrrol-3-yl}-acrylamide], the EC50 lay within 0.027 to 4.4 µM.

For the molecule `O=C(/C=C/c1ccn(S(=O)(=O)c2cccc(-c3ccc(CN4CCOCC4)cc3)c2)c1)NO` [Compound 36, (E)-N-Hydroxy-3-[1-(4′-morpholin-4-ylmethyl-biphenyl-3-sulfonyl)-1H-pyrrol-3-yl]-acrylamide], the EC50 lay within 0.027 to 4.4 µM.

`CN(C)Cc1ccc(-c2cccc(S(=O)(=O)n3ccc(/C=C/C(=O)NO)c3)c2)cc1` [Compound 37, (E)-3-[1-(4′-Dimethylaminomethyl-biphenyl-3-sulfonyl)-1H-pyrrol-3-yl]-N-hydroxy-acrylamide]: the EC50 was 0.027 to 4.4 µM.

Take `CN1CCN(c2cc(-c3ccc(S(=O)(=O)n4ccc(/C=C/C(=O)NO)c4)s3)ccn2)CC1` [Compound 42, (E)-N-Hydroxy-3-(1-{5-[2-(4-methyl-piperazin-1-yl)-pyridin-4-yl]-thiophene-2-sulfonyl}-1H-pyrrol-3-yl)-acrylamide]: the EC50 is 0.027 to 4.4 µM.

On to `O=C(/C=C/c1ccn(S(=O)(=O)c2cccc(-c3ccc(OCCN4CCCC4)cc3)c2)c1)NO` [Compound 43, (E)-N-Hydroxy-3-{1-[4′-(2-pyrrolidin-1-yl-ethoxy)-biphenyl-3-sulfonyl]-1H-pyrrol-3-yl}-acrylamide], for which the EC50 is 0.027 to 4.4 µM.

On to `CN(C)Cc1ccc(-c2ccc(S(=O)(=O)n3ccc(/C=C/C(=O)NO)c3)s2)cc1` [Compound 46, (E)-3-{1-[5-(4-Dimethylaminomethyl-phenyl)-thiophene-2-sulfonyl]-1H-pyrrol-3-yl}-N-hydroxy-acrylamide], for which the 50% effective concentration (EC50) was in the range of 0.027 to 4.4 µM.

Regarding `O=C(/C=C/c1ccn(S(=O)(=O)c2ccc(-c3ccc(CN4CCOCC4)cc3)s2)c1)NO` [Compound 54, (E)-N-Hydroxy-3-{1-[5-(4-morpholin-4-ylmethyl-phenyl)-thiophene-2-sulfonyl]-1H-pyrrol-3-yl}-acrylamide], the EC50 is 0.027 to 4.4 µM.

In the case of `O=C(/C=C/c1ccn(S(=O)(=O)c2ccc(-c3ccc(OCCN4CCOCC4)cc3)s2)c1)NO` [Compound 56, (E)-N-Hydroxy-3-(1-{5-[4-(2-morpholin-4-yl-ethoxy)-phenyl]-thiophene-2-sulfonyl}-1H-pyrrol-3-yl)-acrylamide], the EC50 is 0.027 to 4.4 µM.

In the case of `O=C(/C=C/c1ccn(S(=O)(=O)c2ccc(-c3ccc(OCCCN4CCOCC4)cc3)s2)c1)NO` [Compound 57, (E)-N-Hydroxy-3-(1-{5-[4-(3-morpholin-4-yl-propoxy)-phenyl]-thiophene-2-sulfonyl}-1H-pyrrol-3-yl)-acrylamide], the EC50 is 0.027 to 4.4 µM.

Usually EC50 stands for the concentration giving half of the maximal effect.
